Measured values as given in US12533353B2, “Methods of treatment of cancer comprising CDC7 inhibitors” (CARNA BIOSCIENCES, INC., priority 2018, dated 2026).
pIC50: −log10 of the molar value.

Tests used:
MV-4-11 = experiment: AML 3D culture, 5 days; type: cell-based; conditions: Homo sapiens, MV4-11; MV-4-11 cell line
Protocol: (§1) The activity of SRA141 was investigated in in vitro and ex vivo three-dimensional (3D) cultures prepared from three AML cell lines (EOL-1, Molm-16 and MV-4-11) and three AML PDX models (AM5512, AM7440 and AM7577), respectively. Tumor cultures were treated with SRA141 (0.08 to 33 μM) for 5 days.

EOL-1 = experiment: AML 3D culture, 5 days; type: cell-based; conditions: Homo sapiens, EOL1; EOL-1 cell line
Protocol: as §1

Molm-16 = experiment: AML 3D culture, 5 days; type: cell-based; conditions: MOLM16; Molm-16 cell line
Protocol: as §1

[1] = system: HT-29 colorectal adenocarcinoma cells; experiment: Gemcitabine growth inhibition alone or with SRA141, 96 hours; type: cell-based, human; conditions: SRA141 at 1.1 μM or 3.3 μM
Protocol: To confirm the efficacy of a Cdc7 inhibitor in combination with the replicative stress-inducing anti-neoplastic agent gemcitabine, human HT-29 colorectal adenocarcinoma cells were treated with increasing concentrations of gemcitabine (from 0.037 to 1 μM) for 96 hours.

[2] = system: bacterial reverse mutation; experiment: In vitro bacterial reverse mutation assay
Source text: SRA141 was negative for both mutagenicity and clastogenicity in in vitro bacterial reverse mutation and human lymphocyte chromosomal aberration assays.

CCOC(=O)C1=C(NN2CCN(CC(F)(F)F)CC2)O/C(=C\c2c[nH]c3ncccc23)C1=O [SRA141]
pIC50 (MV-4-11): 5.84 | pIC50 (EOL-1): 6.57 | pIC50 (Molm-16): 6.62 | effect of SRA141 addition on gemcitabine inhibition [1]: substantially reduced the inhibitory effects of gemcitabine | mutagenicity [2]: negative
